“Also recorded” adds a separate entry of the source. Starred links: 1 amine or outer side, 2 acyl side, 3 side chain; linkers in the order of their positions; H or OH if unused. Non-standard residues stand in square brackets, D forms with d. Residues, ends and D or L forms follow the SMILES beside them. X1 = O=C(C(Cc1ccc(/N=N/c2ccccc2)cc1)N[*:1])[*:2]
Key:
[1] = Droplet fusion and control by light irradiation
Description: A mixed aqueous solution including 5 wt % DEX550k and 5 w % PEG35k was produced in a microtube. Next, the compound (P1) was added to the mixed aqueous solution to be 1 wt % thereof, dissolved, and stirred for 1 minute using a vortex. […] The produced droplets were position-selectively irradiated with 350 nm light for 6 minutes. The droplet dispersion liquid was placed in a transparent cell having a depth of 1 mm and light irradiation was performed using a fluorescence microscope (Olympus IX-73). A U-HGLGPS (brightness: 130 W) was used as the light source for the fluorescence microscope and light was irradiated with a brightness output setting of 25%.
To observe the localization of the compound (P), the compound (P1) was labeled using Cy5. A mixed aqueous solution including 5 wt % dextran (550 kDa; DEX550k) and 5 wt % polyethylene glycol (35 kDa; PEG35k) was produced in a microtube. Next, the Cy5-labeled compound (P1) was added to the mixed aqueous solution to be 1 wt % thereof, dissolved, and stirred for 1 minute using a vortex. […] The droplets were irradiated with 350 nm light for 5 seconds. The droplet dispersion liquid was placed in a transparent cell having a depth of 1 mm and light irradiation was performed using a fluorescence microscope (Olympus IX-73). A U-HGLGPS (brightness: 130 W) was used as the light source for the fluorescence microscope and light was irradiated with a brightness output setting of 25%. Before and after light irradiation, the droplets were observed using a phase-contrast microscope (Olympus IX-73 connected to a phase-contrast light source) and a fluorescence microscope (Olympus IX-73 connected to a fluorescence light source U-HGLGPS).
A mixed aqueous solution including 5 wt % dextran (550 kDa; DEX550k) and 5 wt % polyethylene glycol (35 kDa; PEG35k) was produced in a microtube. Next, the labeled compound (P1) was added to the mixed aqueous solution to be 1 wt % thereof, dissolved, and stirred for 1 minute using a vortex. […] The droplets were subjected to any of the following light irradiation operations (1) to (3). The light irradiation was performed in the same manner as described above. • (1) No light irradiation. • (2) Irradiation with 350 nm light for 5 seconds. • (3) Irradiation with 350 nm light for 5 seconds, followed by irradiation with 550 nm light for 5 seconds.
The droplets were observed under a phase-contrast microscope before and after carrying out the light irradiation operation under the above-described conditions. In (1), an image “before carrying out the light irradiation operation” was taken and then an image “after carrying out the light irradiation operation” was taken within 1 minute. No light irradiation was performed between “before carrying out the light irradiation operation” and “after carrying out the light irradiation operation”. In (2), an image “after carrying out the light irradiation operation” was taken immediately after 5 seconds of irradiation with 350 nm light. In (3), 350 nm light was irradiated for 5 seconds, immediately followed by irradiating 550 nm light for 5 seconds, and an image “after carrying out the light irradiation operation” was taken immediately after the 550 nm light was irradiated for 5 seconds.
A mixed aqueous solution including 5 wt % DEX550k and 5 w % PEG35k was produced in a microtube. Next, the compound (P2) was added to the mixed aqueous solution to be 1 wt % thereof, dissolved, and stirred for 1 minute using a vortex. […] The produced droplets were irradiated with 350 nm light for 5 seconds. The droplet dispersion liquid was placed in a transparent cell having a depth of 1 mm and light irradiation was performed using a fluorescence microscope (Olympus IX-73).

[2] = Photoresponsiveness (UV-vis absorption spectrum after light irradiation); format: physicochemical; conditions: 1 wt % dispersion in D-MEM with 4 mM HEPES, 25° C.; P1: 350 nm / 450 nm; P3: 540 nm / 450 nm
Description: The compound (P1) was dispersed in a D-MEM buffer solution including 4 mM HEPES to produce a dispersion liquid including 1 wt % of the compound (P1). This dispersion liquid was placed in a transparent cell having a depth of 1 mm and irradiated with light using a fluorescence microscope (Olympus IX-73). A U-HGLGPS (brightness: 130 W) was used as the light source for the fluorescence microscope and light was irradiated with a brightness output setting of 25%. The absorption spectrum and circular dichroism (CD) spectrum of the dispersion liquid after light irradiation were measured by ultraviolet-visible light spectroscopy. The measurements were performed at room temperature (25° C.).
This dispersion liquid was irradiated with 450 nm or 550 nm light and the absorption spectrum was analyzed by ultraviolet-visible spectroscopy (UV-vis) (JASCO V-650 spectrophotometer). Measurements were performed at room temperature (25° C.).

[3] = Evaluation of droplet stability (phase-contrast microscope); conditions: 1 wt % compound, 5 wt % DEX550k, 5 wt % PEG35k
Description: A mixed aqueous solution including 5 wt % dextran (550 kDa; DEX550k), 0.002 wt % rhodamine-DEX550k, and 5 wt % polyethylene glycol (35 kDa; PEG35k) was produced in a microtube. Next, the compound (P1) was added to the mixed aqueous solution to be 1 wt % thereof, dissolved, and stirred for 1 minute using a vortex. Due to this, liquid-liquid phase-separated droplets were produced.
Liquid-liquid phase-separated droplets were produced by the same method as in <Droplet Production Example 1>. After production of the droplets, the droplets were left to stand for 24 hours and the state of the droplets was observed using a phase-contrast microscope.
Liquid-liquid phase-separated droplets were produced by the same method as in <Droplet Production Example 1>. After production of the droplets, the droplets were left to stand for 16 days and the state of the droplets was observed using a phase-contrast microscope.

[4] = Rheological evaluation (storage modulus G' and loss modulus G'', rotational rheometer); format: physicochemical; conditions: trans form, 1.0 wt % in D-MEM buffer pH 8.5, incubated 3 days at 37° C. in dark
Description: The trans form of the compound (P1) was dispersed in a D-MEM buffer solution (4 mM HEPES, containing 1 wt % NaHCO3, pH 8.5) to produce a dispersion liquid including 1.0 wt % of the compound (P1). This dispersion liquid was incubated for 3 days in a dark place at 37° C. in a 5% CO2 atmosphere. Thereafter, the storage modulus G′ and loss modulus G″ were measured using a rotational rheometer (Malvern Panalytical, Kinexus lab+).
This dispersion liquid was incubated for 3 days in a dark place at 37° C. in a 5% CO2 atmosphere. The storage modulus G′ and loss modulus G″ were then measured using a rotational rheometer (Malvern Panalytical, Kinexus lab+).

[5] = Reversible gel-sol transition by light irradiation (test tube); format: physicochemical
Description: The compound (P1) was dispersed in a D-MEM buffer solution (4 mM HEPES, containing 1 wt % NaHCO3, pH 8.5) to produce a dispersion liquid including 1.0 wt % of the compound (P1). The dispersion liquid was placed in a test tube to observe the gel-sol transition caused by light irradiation. Incubation after the start of light irradiation was performed at 37° C. in a 5% CO2 atmosphere.
This dispersion liquid was placed in a test tube to observe the changes in gelation and solation caused by light irradiation. After the start of light irradiation, incubation was performed at 37° C. in a 5% CO2 atmosphere.

[6] = TEM analysis of dispersion liquid; format: physicochemical; conditions: 1.0 wt % dispersion, irradiated with 450 nm light
Description: This dispersion liquid was incubated for 3 days in a dark place at 37° C. in a 5% CO2 atmosphere. Thereafter, the dispersion liquid was irradiated with 450 nm light and analyzed with a transmission electron microscope (JEOL JEM-1400).
This dispersion liquid was incubated for 3 days in a dark place at 37° C. in a 5% CO2 atmosphere. Thereafter, the dispersion liquid was irradiated with 450 nm or 550 nm light and absorption spectrum analysis was performed by infrared absorption spectroscopy analysis (IR) (JASCO FTIR-6100) and analysis was performed using a transmission electron microscope (JEOL JEM-1400).

[7] = 1 wt % compound, 350 nm light for 5 seconds

| Compound | change of droplets after 350 nm light [1, 7] | photoisomerization of azobenzene structure on light irradiation [2] | time for which droplets were stably maintained ([3]; left to stand 24 hours) | time after which droplets were still stably maintained ([3]; left to stand 16 days) | droplet fusion in light irradiated spot ([1]; 1 wt % compound, position-selective 350 nm light for 6 minutes) | change of droplets after 350 nm then 550 nm light ([1]; 1 wt % labeled compound, 350 nm light 5 seconds, then 550 nm light 5 seconds) | change of droplets, no light irradiation ([1]; 1 wt % labeled compound, operation (1) no light irradiation) | state of droplet dispersion liquid before irradiation with 350 nm light ([1]; Cy5-labeled compound, 1 wt %) | state of droplet dispersion liquid after irradiation with 350 nm light ([1]; Cy5-labeled compound, 1 wt %, 350 nm light for 5 seconds) | gel formation (G' versus G'') [4] | state of dispersion liquid at start of light irradiation, cis form ([5]; 1.0 wt % in D-MEM buffer pH 8.5, 0 min) | state of dispersion liquid at start of light irradiation, trans form ([5]; 1.0 wt % in D-MEM buffer pH 8.5, 0 min / before irradiation) | state of trans-form dispersion liquid after 350 nm light ([5]; 1.0 wt %, 350 nm light for 15 minutes, 37° C., 5% CO2) | state of cis-form dispersion liquid after 450 nm light ([5]; 1.0 wt %, 450 nm light for 15 minutes, 37° C., 5% CO2) | structure in TEM image, trans form [6] |
| --- | --- | --- | --- | --- | --- | --- | --- | --- | --- | --- | --- | --- | --- | --- | --- |
| CSCCC(NC(=O)C(CCCNC(=N)N)NC(C)=O)C(=O)NC(CC(=O)O)C(=O)NC(C)C(=O)NC(CCCNC(=N)N)C(=O)NC(Cc1ccc(/N=N/c2ccccc2)cc1)C(=O)NC(CCCNC(=N)N)C(N)=O (stereo not shown) [Compound (P2)] (Ac-RMDAR[X1]R-NH2; configuration not given here) | larger droplets were formed | – | – | – | – | – | – | – | – | – | – | – | – | – | – |
| CSCCC(NC(=O)C(CCCNC(=N)N)NC(=O)C(C)NC(=O)C(CC(=O)O)NC(=O)C(Cc1ccc(/N=N/c2ccccc2)cc1)NC(=O)C(CCCNC(=N)N)NC(C)=O)C(=O)NC(CCCNC(=N)N)C(N)=O (stereo not shown) [Compound (P1)] (Ac-R[X1]DARMR-NH2; configuration not given here) | droplets which were larger than before the light irradiation were observed; also recorded: the size of the droplets significantly increased | reversibly isomerized from the trans form to the cis form and from the cis form to the trans form | ≥ 24 h | ≥ 16 days | a larger droplet was formed | the number of droplets decreased and the size of the droplets increased | no change was seen in the size of the droplets | gel state | sol state | a gel was formed | underwent solation | underwent gelation | underwent solation | underwent gelation | formed a structure in a fibrous state |

Reference: patent US20260250317A1, “COMPOUND AND USE OF THE SAME” (JAPAN SCIENCE AND TECHNOLOGY AGENCY, priority 2022, published 2026)
